Consider four molecules from US12252524B2, “GIP/GLP1 co-agonist compounds” (Eli Lilly and Company, priority 2018, dated 2025).

The target in assay [1] is T1, human Gcg receptor (Homo sapiens, UniProt P47871).
T1 construct: expressed in transfected cells; crude membranes
Kind of assay: [125I]-Glucagon binding (SPA), human Gcg receptor. To be noted: read-out: hGLcgR Ki, nM (SEM, n). On the procedure: (§1) Two methods are used for the preparation of crude cell membranes.
(§2) Method 1: Frozen cell pellets are lysed on ice in hypotonic buffer containing 50 mM Tris HCl, pH 7.5, and Roche Complete™ Protease Inhibitors with EDTA. The cell suspension is disrupted using a glass Potter-Elvehjem homogenizer fitted with a Teflon® pestle for 25 strokes. The homogenate is centrifuged at 4° C. at 1100×g for 10 minutes. The supernatant is collected and stored on ice while the pellets are resuspended in homogenization buffer and rehomogenized as described above. The homogenate is centrifuged at 1100×g for 10 minutes. The second supernatant is combined with the first supernatant and centrifuged at 35000×g for 1 hour at 4° C. The resulting membrane pellet is resuspended in homogenization buffer containing protease inhibitors at approximately 1 to 3 mg/mL, quick frozen in liquid nitrogen and stored as aliquots in a−80° C. freezer until use.
(§3) Method 2: Frozen cell pellets are lysed on ice in hypotonic buffer containing 50 mM Tris HCl, pH 7.5, 1 mM MgCl2, Roche Complete™ EDTA-free Protease Inhibitors and 25 units/ml DNAse I (Invitrogen). The cell suspension is disrupted using a glass Potter-Elvehjem homogenizer fitted with a Teflon® pestle for 20 to 25 strokes. The homogenate is centrifuged at 4° C. at 1800×g for 15 minutes. The supernatant is collected and stored on ice while the pellets are resuspended in homogenization buffer (without DNAse I) and rehomogenized as described above. The homogenate is centrifuged at 1800×g for 15 minutes. The second supernatant is combined with the first supernatant and centrifuged an additional time at 1800×g for 15 minutes. The overall supernatant is then centrifuged at 25000×g for 30 minutes at 4° C. The resulting membrane pellet is resuspended in homogenization buffer (without DNAse I) containing protease inhibitors at approximately 1 to 3 mg/mL and stored as aliquots in a−80° C. freezer until use.
The human Gcg receptor binding assays are performed using a Scintillation Proximity Assay (SPA) format with wheat germ agglutinin (WGA) beads (Perkin Elmer). The binding buffer contains 25 mM 4-(2-hydroxyethyl)-1-piperazineethanesulfonic acid (HEPES), pH 7.4, 2.5 mM CaCl2, 1 mM MgCl2, 0.1% (w/v) bacitracin (Research Products), 0.003% (w/v) Polyoxyethylenesorbitan monolaurate (TWEEN©-20), and Roche Complete™ Protease Inhibitors without EDTA. […] Plates are sealed and mixed on a plate shaker (setting 6) for 1 minute and read with a PerkinElmer Trilux MicroBeta© scintillation counter after 12 hours of incubation/settling time at room temperature.
(§4) Data are analyzed using four-parameter (curve maximum, curve minimum, IC50, Hill slope) nonlinear regression routines (Genedata Screener, version 12.0.4, Genedata AG, Basal, Switzerland). […] Values for Ki are reported as the geometric mean, with error expressed as the standard error of the mean (SEM) and n is equal to the number of independent replicates (determined in assays performed on different days). […] The Ki Ratio is a rapid indication of the apparent affinity of a peptide compared to the native control peptide. […] SEM is only calculated when n=2 or greater non-qualified results exist. Means are expressed as GeoMetric means with the standard error of the mean (SEM) and the number of replicates (n) indicated in parenthesis.

Assay [2] concerns the target T2, human GIP receptor (Homo sapiens, UniProt P48546).
T2 construct: expressed in transfected cells; crude membranes
T2 sequence (P48546 22-466): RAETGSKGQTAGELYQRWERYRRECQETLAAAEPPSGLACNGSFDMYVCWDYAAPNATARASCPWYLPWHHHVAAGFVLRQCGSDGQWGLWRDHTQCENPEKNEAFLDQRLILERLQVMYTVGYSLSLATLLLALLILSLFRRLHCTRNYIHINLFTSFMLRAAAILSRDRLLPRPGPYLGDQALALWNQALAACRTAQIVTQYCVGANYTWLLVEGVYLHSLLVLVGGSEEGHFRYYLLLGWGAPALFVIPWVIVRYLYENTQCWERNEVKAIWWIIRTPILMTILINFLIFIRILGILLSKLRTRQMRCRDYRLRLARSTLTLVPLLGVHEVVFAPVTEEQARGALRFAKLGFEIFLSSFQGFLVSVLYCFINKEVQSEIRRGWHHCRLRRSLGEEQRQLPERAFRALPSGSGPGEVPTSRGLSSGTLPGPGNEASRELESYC
Kind of assay: [125I]-GIP binding (SPA), human GIP receptor. To be noted: read-out: hGIPR Ki, nM (SEM, n). Here is the method:
as §1, §2, §3
The binding buffer contains 25 mM HEPES, pH 7.4, 2.5 mM CaCl2, 1 mM MgCl2, 0.1% (w/v) bacitracin, 0.003% (w/v) TWEEN©-20, and Roche Complete™ Protease Inhibitors without EDTA. Peptides and GIP are thawed and 3 fold serially diluted in 100% DMSO (10 point concentration response curves). […] Plates are sealed and mixed on a plate shaker (setting 6) for 1 minute and read with a PerkinElmer Trilux MicroBeta© scintillation counter after 2.5 to 12 hours of incubation/settling time at room temperature.
as §4

For assay [3], the target named is human GLP-1 receptor (GLP-1R) (Homo sapiens, UniProt P43220). Kind of assay: cAMP pharmacological functional assay in presence of casein, hGLP-1R. The following applies: HEK293 cells expressing hGLP-1R, 0.1% Casein, geometric mean; read-out: hGLP1R cAMP Rel EC50 nM (SEM, n). Type of assay: cell-based.
Sequence of human GLP-1 receptor (GLP-1R) (P43220 24-463): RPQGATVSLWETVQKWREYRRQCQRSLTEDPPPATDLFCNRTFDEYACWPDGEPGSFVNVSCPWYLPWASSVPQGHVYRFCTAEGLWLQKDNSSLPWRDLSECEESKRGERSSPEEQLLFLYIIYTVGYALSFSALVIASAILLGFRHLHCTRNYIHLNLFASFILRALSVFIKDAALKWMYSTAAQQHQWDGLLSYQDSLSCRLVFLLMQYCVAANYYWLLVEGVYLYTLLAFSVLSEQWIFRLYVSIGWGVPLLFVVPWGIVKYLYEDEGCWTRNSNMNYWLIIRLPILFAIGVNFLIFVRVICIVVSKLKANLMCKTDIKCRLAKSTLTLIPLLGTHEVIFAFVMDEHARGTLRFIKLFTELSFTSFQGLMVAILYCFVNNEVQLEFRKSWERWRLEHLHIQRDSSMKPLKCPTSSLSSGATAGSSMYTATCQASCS
The target in assay [4] is T3, gastric inhibitory peptide receptor (GIPR) (Homo sapiens, UniProt P48546).
T3 sequence (P48546 22-466): T2 sequence (P48546 22-466)
Kind of assay: cAMP pharmacological functional assay in presence of casein, hGIPR. Format: cell-based. To be noted: HEK293 cells expressing hGIPR, 0.1% Casein, geometric mean; read-out: hGIPR cAMP Rel EC50 nM (SEM, n).

Assay [5] has as its target human GLP-1R (Homo sapiens, UniProt P43220). Kind of assay: [125I]-GLP-1 binding (SPA), human GLP-1 receptor. Details: expressed in transfected cells; crude membranes. The following applies: read-out: hGLP1R Ki, (nM) (SEM, n). On the procedure: as §1, §2, §3
The binding buffer contains 25 mM HEPES, pH 7.4, 2.5 mM CaCl2, 1 mM MgCl2, 0.1% (w/v) bacitracin, 0.003% (w/v) TWEEN©-20, and Roche Complete™ Protease Inhibitors without EDTA.
as §4

Numbered stars: 1 amine (or outer) side, 2 acyl side, 3 side chain; on linkers, the order of the positions; unused ones are H or OH. Square brackets hold non-standard residues; d marks the D form. Side chains are listed from the residue outwards. Peptide text beside a SMILES is read from it. * marks the point of attachment. C20 diacid = O=C(O)CCCCCCCCCCCCCCCCCCC(=O)*; αMePhe(2-F) = C[C@](N)(Cc1ccccc1F)C(=O)O; γGlu = O=C(O)[C@H](CCC(=O)[*:2])N[*:1]; αMeL = CC(C)C[C@](C)(N)C(=O)O; AEEA = NCCOCCOCC(=O)O; Aib = CC(C)(N)C(=O)O

T1 sequence (P47871 26-477): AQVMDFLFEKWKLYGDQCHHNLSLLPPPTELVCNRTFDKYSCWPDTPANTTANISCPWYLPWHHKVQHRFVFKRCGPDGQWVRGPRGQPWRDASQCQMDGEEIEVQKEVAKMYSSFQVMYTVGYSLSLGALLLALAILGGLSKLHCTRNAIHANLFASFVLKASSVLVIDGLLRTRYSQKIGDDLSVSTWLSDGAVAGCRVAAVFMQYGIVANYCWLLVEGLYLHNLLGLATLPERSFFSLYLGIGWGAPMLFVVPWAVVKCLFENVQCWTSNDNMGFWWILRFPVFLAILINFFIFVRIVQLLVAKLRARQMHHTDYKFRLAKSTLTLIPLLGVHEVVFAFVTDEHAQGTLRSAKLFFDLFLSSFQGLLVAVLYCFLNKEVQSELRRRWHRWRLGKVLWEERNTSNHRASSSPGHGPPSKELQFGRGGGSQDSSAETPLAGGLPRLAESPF
Sequence of human GLP-1R (P43220 24-463): as the sequence (P43220 24-463) above

`CC[C@H](C)[C@H](NC(=O)[C@H](Cc1ccccc1)NC(=O)[C@H](C)NC(=O)C(C)(C)NC(=O)[C@H](CCC(N)=O)NC(=O)[C@H](C)NC(=O)[C@H](CCCCNC(=O)COCCOCCNC(=O)COCCOCCNC(=O)CC[C@H](NC(=O)CCCCCCCCCCCCCCCCCCC(=O)O)C(=O)O)NC(=O)[C@H](CCCCN)NC(=O)[C@H](CC(=O)O)NC(=O)[C@H](CC(C)C)NC(=O)[C@H](CC(C)C)NC(=O)[C@@H](NC(=O)[C@H](CO)NC(=O)[C@H](Cc1ccc(O)cc1)NC(=O)[C@H](CC(=O)O)NC(=O)[C@H](CO)NC(=O)[C@@H](NC(=O)[C@H](Cc1ccccc1)NC(=O)[C@@H](NC(=O)CNC(=O)[C@H](CCC(=O)O)NC(=O)C(C)(C)NC(=O)[C@@H](N)Cc1ccc(O)cc1)[C@@H](C)O)[C@@H](C)O)[C@@H](C)CC)C(=O)N[C@@H](CCC(=O)O)C(=O)N[C@@H](Cc1ccc(O)cc1)C(=O)N[C@@H](CC(C)C)C(=O)N[C@@H](CC(C)C)C(=O)N[C@@H](CCC(=O)O)C(=O)NCC(=O)NCC(=O)N1CCC[C@H]1C(=O)N[C@@H](CO)C(=O)N[C@@H](CO)C(=O)NCC(=O)N[C@@H](C)C(=O)N1CCC[C@H]1C(=O)N1CCC[C@H]1C(=O)N1CCC[C@H]1C(=O)N[C@@H](CO)C(N)=O` [Example 6] (H-Y[Aib]EGTFTSDYSILLDKK([AEEA-AEEA-γGlu-C20 diacid])AQ[Aib]AFIEYLLEGGPSSGAPPPS-NH2): the Ki in assay [1] was found to be 55.8 nM; in assay [2], 0.0835 nM; in assay [5], 6.71 nM. Also, the 50% effective concentration (EC50) in assay [3] stood at 0.374 nM; in assay [4] it was 0.0899 nM.
As for `CC[C@H](C)[C@H](NC(=O)[C@H](Cc1ccccc1)NC(=O)[C@H](C)NC(=O)C(C)(C)NC(=O)[C@H](CCC(N)=O)NC(=O)[C@H](C)NC(=O)[C@H](CCCCNC(=O)COCCOCCNC(=O)COCCOCCNC(=O)CC[C@H](NC(=O)CCCCCCCCCCCCCCCCCCC(=O)O)C(=O)O)NC(=O)[C@H](CO)NC(=O)[C@H](CC(=O)O)NC(=O)[C@H](CC(C)C)NC(=O)[C@H](CC(C)C)NC(=O)[C@@H](NC(=O)[C@H](CO)NC(=O)[C@H](Cc1ccc(O)cc1)NC(=O)[C@H](CC(=O)O)NC(=O)[C@H](CO)NC(=O)[C@@H](NC(=O)[C@H](Cc1ccccc1)NC(=O)[C@@H](NC(=O)CNC(=O)[C@H](CCC(=O)O)NC(=O)C(C)(C)NC(=O)[C@@H](N)Cc1ccc(O)cc1)[C@@H](C)O)[C@@H](C)O)[C@@H](C)CC)C(=O)N[C@@H](CCC(=O)O)C(=O)N[C@@H](Cc1ccc(O)cc1)C(=O)N[C@@H](CC(C)C)C(=O)N[C@@H](CC(C)C)C(=O)N[C@@H](CCC(=O)O)C(=O)NCC(=O)NCC(=O)N1CCC[C@H]1C(=O)N[C@@H](CO)C(=O)N[C@@H](CO)C(=O)NCC(=O)N[C@@H](C)C(=O)N1CCC[C@H]1C(=O)N1CCC[C@H]1C(=O)N1CCC[C@H]1C(=O)N[C@@H](CO)C(N)=O` [Example 7] (H-Y[Aib]EGTFTSDYSILLDSK([AEEA-AEEA-γGlu-C20 diacid])AQ[Aib]AFIEYLLEGGPSSGAPPPS-NH2), the values for the inhibition constant (Ki) in assay [1], in assay [2] and in assay [5] were 198 nM, 0.252 nM and 43.3 nM, respectively. For the same molecule, the EC50 in assay [3] worked out at 0.47 nM; in assay [4], 0.461 nM.
With `CC[C@H](C)[C@H](NC(=O)[C@H](CC(C)C)NC(=O)[C@H](Cc1ccc(O)cc1)NC(=O)[C@H](CCC(=O)O)NC(=O)[C@@H](NC(=O)[C@H](Cc1ccccc1)NC(=O)[C@H](C)NC(=O)C(C)(C)NC(=O)[C@H](CCC(N)=O)NC(=O)[C@H](C)NC(=O)[C@H](CCCCNC(=O)COCCOCCNC(=O)COCCOCCNC(=O)CC[C@H](NC(=O)CCCCCCCCCCCCCCCCCCC(=O)O)C(=O)O)NC(=O)[C@H](CCCCN)NC(=O)[C@H](CC(=O)O)NC(=O)[C@H](CC(C)C)NC(=O)[C@H](CC(C)C)NC(=O)[C@@H](NC(=O)[C@H](CO)NC(=O)[C@H](Cc1ccc(O)cc1)NC(=O)[C@H](CC(=O)O)NC(=O)[C@H](CO)NC(=O)[C@@H](NC(=O)[C@H](Cc1ccccc1)NC(=O)[C@@H](NC(=O)CNC(=O)[C@H](CCC(=O)O)NC(=O)C(C)(C)NC(=O)[C@@H](N)Cc1ccc(O)cc1)[C@@H](C)O)[C@@H](C)O)[C@@H](C)CC)[C@@H](C)CC)C(=O)N[C@@H](CCC(=O)O)C(=O)NCC(=O)NCC(=O)N1CCC[C@H]1C(=O)N[C@@H](CO)C(=O)N[C@@H](CO)C(=O)NCC(=O)N[C@@H](C)C(=O)N1CCC[C@H]1C(=O)N1CCC[C@H]1C(=O)N1CCC[C@H]1C(=O)N[C@@H](CO)C(N)=O` [Example 8], the values for the Ki in assay [1], in assay [2] and in assay [5] were 206 nM, 0.0772 nM and 2.84 nM, respectively. Besides, the EC50 in assay [3] is 0.148 nM; in assay [4], 0.0848 nM.
Take `CC[C@H](C)[C@H](NC(=O)[C@H](CC(C)C)NC(=O)[C@H](Cc1ccc(O)cc1)NC(=O)[C@@H](CCC(=O)O)NC(=O)[C@@H](NC(=O)[C@H](Cc1ccccc1)NC(=O)[C@H](CCC(=O)O)NC(=O)C(C)(C)NC(=O)[C@H](CCC(N)=O)NC(=O)[C@H](C)NC(=O)[C@H](CCCCNC(=O)COCCOCCNC(=O)COCCOCCNC(=O)CC[C@H](NC(=O)CCCCCCCCCCCCCCCCCCC(=O)O)C(=O)O)NC(=O)[C@H](CCC(=O)O)NC(=O)[C@H](CC(=O)O)NC(=O)[C@H](CC(C)C)NC(=O)[C@](C)(CC(C)C)NC(=O)[C@@H](NC(=O)[C@H](CO)NC(=O)[C@H](CC(C)C)NC(=O)[C@H](CC(=O)O)NC(=O)[C@H](CO)NC(=O)[C@@H](NC(=O)[C@](C)(Cc1ccccc1F)NC(=O)[C@@H](NC(=O)CNC(=O)[C@H](CCC(=O)O)NC(=O)C(C)(C)NC(=O)[C@@H](N)Cc1ccc(O)cc1)[C@@H](C)O)[C@@H](C)O)[C@@H](C)CC)[C@@H](C)CC)C(=O)N[C@@H](CCC(=O)O)C(=O)NCC(=O)NCC(=O)N1CCC[C@H]1C(=O)N[C@@H](CO)C(=O)N[C@@H](CO)C(=O)NCC(=O)N[C@@H](C)C(=O)N1CCC[C@H]1C(=O)N1CCC[C@H]1C(=O)N1CCC[C@H]1C(=O)N[C@@H](CO)C(N)=O` [Example 183] (H-Y[Aib]EGT[αMePhe(2-F)]TSDLSI[αMeL]LDEK([AEEA-AEEA-γGlu-C20 diacid])AQ[Aib]EFI[dE]YLIEGGPSSGAPPPS-NH2): the Ki in assay [1] is 304 nM; in assay [2], 0.0869 nM; in assay [5] it was 4.11 nM. In addition, in assay [4], the EC50 was 0.0615 nM.

One may read the Ki as the equilibrium dissociation constant of an inhibitor or competing ligand from its target. A word on the EC50: it is the concentration giving half of the maximal effect.
